# “And” between values parts separate entries of the source, which are not always exact repeats. Identical values can stand only once.
# Test system: 292921-168-R-J2-PDC KRAS tumor spheroid viability
# Experiment: Anticancer human tumor 292921-168-R-J2-PDC patient-derived pancreatic carcinoma cell line growth inhibition [KRAS2]
# Details: spheroids with HUVEC and MSC; for viability, T/C: stronger effect = lower value
# How it was run: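 Combination screen of spheroid viability in tumor-cell co-cultures with endothelial (HUVEC) and mesenchymal stem cell stroma. Each agent was tested in half-log dilutions, topping at clinical Cmax or at 10 microM without a known Cmax.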
# [1] = curve of first compound, second compound 0.1 µM
# [2] = curve of first compound, second compound 0.316 µM
# [3] = curve of first compound, second compound 1 µM
# [4] = curve of first compound, second compound 3.16 µM
# [5] = curve of first compound, second compound 10 µM
# [6] = second compound 0.1 µM, first compound 0.0316 µM
# [7] = second compound 0.1 µM, first compound 0.1 µM
# [8] = second compound 0.1 µM, first compound 0.316 µM
# [9] = second compound 0.1 µM, first compound 1 µM
# [10] = second compound 0.1 µM, first compound 3.16 µM
# [11] = second compound 0.1 µM, first compound 10 µM
# [12] = second compound 0.316 µM, first compound 0.0316 µM
# [13] = second compound 0.316 µM, first compound 0.1 µM
# [14] = second compound 0.316 µM, first compound 0.316 µM
# [15] = second compound 0.316 µM, first compound 1 µM
# [16] = second compound 0.316 µM, first compound 3.16 µM
# [17] = second compound 0.316 µM, first compound 10 µM
# [18] = second compound 1 µM, first compound 0.0316 µM
# [19] = second compound 1 µM, first compound 0.1 µM
# [20] = second compound 1 µM, first compound 0.316 µM
# [21] = second compound 1 µM, first compound 1 µM
# [22] = second compound 1 µM, first compound 3.16 µM
# [23] = second compound 1 µM, first compound 10 µM
# [24] = second compound 3.16 µM, first compound 0.0316 µM
# [25] = second compound 3.16 µM, first compound 0.1 µM
# [26] = second compound 3.16 µM, first compound 0.316 µM
# [27] = second compound 3.16 µM, first compound 1 µM
# [28] = second compound 3.16 µM, first compound 3.16 µM
# [29] = second compound 3.16 µM, first compound 10 µM
# [30] = second compound 10 µM, first compound 0.0316 µM
# [31] = second compound 10 µM, first compound 0.1 µM
# [32] = second compound 10 µM, first compound 0.316 µM
# [33] = second compound 10 µM, first compound 1 µM
# [34] = second compound 10 µM, first compound 3.16 µM
# [35] = second compound 10 µM, first compound 10 µM
# 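Also: drug exposure lasted seven days after spheroids formed for three days.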
# 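For viability, T/C in this document: percent of DMSO vehicle control viability which is 100%.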
compound,measurement,setting,value
CC(C)NCC(C(=O)N1CCN(c2ncnc3c2C(C)CC3O)CC1)c1ccc(Cl)cc1 (configuration not stated),"viability, T/C",compound 0.0316 µM,93.8% [middle of 5 runs]
same,"viability, T/C",compound 0.1 µM,88.5% [middle of 5 runs]
same,"viability, T/C",compound 0.316 µM,83.5% [middle of 5 runs]
same,"viability, T/C",compound 1 µM,83.1% [middle of 5 runs]
same,"viability, T/C",compound 3.16 µM,76.5% [middle of 5 runs]
same,"viability, T/C",compound 10 µM,51.1% [middle of 5 runs]
same,IC50,curve of compound,> 10000 nM and 9740 nM
CCNC(=O)CC1N=C(c2ccc(Cl)cc2)c2cc(OC)ccc2-n2c(C)nnc21 (configuration not stated) + CC1OCC2(CCN(c3cnc(Sc4ccnc(N)c4Cl)c(N)n3)CC2)C1N,IC50,[1],287 nM
same,IC50,[2],48.4 nM
same,IC50,[3],< 31.6 nM
same,IC50,[4],< 31.6 nM
same,IC50,[5],< 31.6 nM
same,"viability, T/C",[6],69.1%
same,"viability, T/C",[7],60.6%
same,"viability, T/C",[8],48.1%
same,"viability, T/C",[9],40.1%
same,"viability, T/C",[10],29.4%
same,"viability, T/C",[11],27.5%
same,"viability, T/C",[12],53.5%
same,"viability, T/C",[13],45.5%
same,"viability, T/C",[14],31.4%
same,"viability, T/C",[15],31.7%
same,"viability, T/C",[16],25.1%
same,"viability, T/C",[17],19.7%
same,"viability, T/C",[18],45.6%
same,"viability, T/C",[19],43.7%
same,"viability, T/C",[20],33.5%
same,"viability, T/C",[21],31.6%
same,"viability, T/C",[22],19.9%
same,"viability, T/C",[23],18.3%
same,"viability, T/C",[24],37.4%
same,"viability, T/C",[25],34.6%
same,"viability, T/C",[26],26.2%
same,"viability, T/C",[27],23%
same,"viability, T/C",[28],20%
same,"viability, T/C",[29],16.1%
same,"viability, T/C",[30],33.8%
same,"viability, T/C",[31],31.1%
same,"viability, T/C",[32],28.4%
same,"viability, T/C",[33],23.1%
same,"viability, T/C",[34],20.9%
same,"viability, T/C",[35],17.3%
CC1OCC2(CCN(c3cnc(Sc4ccnc(N)c4Cl)c(N)n3)CC2)C1N (configuration not stated) + C=CC(=O)N1CCN(c2nc(OCC3CCCN3C)nc3c2CCN(c2cccc4cccc(C)c24)C3)CC1CC#N,IC50,"curve of first compound, second compound 0.0316 µM",384 nM
same,IC50,[1],227 nM
same,IC50,[2],94.6 nM
same,IC50,[3],< 31.6 nM
same,IC50,[4],< 31.6 nM
same,"viability, T/C","second compound 0.0316 µM, first compound 0.0316 µM",92.1%
same,"viability, T/C","second compound 0.0316 µM, first compound 0.1 µM",68%
same,"viability, T/C","second compound 0.0316 µM, first compound 0.316 µM",48.8%
same,"viability, T/C","second compound 0.0316 µM, first compound 1 µM",45.6%
same,"viability, T/C","second compound 0.0316 µM, first compound 3.16 µM",32.9%
same,"viability, T/C","second compound 0.0316 µM, first compound 10 µM",28.4%
same,"viability, T/C",[6],82.9%
same,"viability, T/C",[7],61.2%
same,"viability, T/C",[8],43.8%
same,"viability, T/C",[9],36.9%
same,"viability, T/C",[10],37.6%
same,"viability, T/C",[11],26.8%
same,"viability, T/C",[12],66.1%
same,"viability, T/C",[13],47.8%
same,"viability, T/C",[14],37.4%
same,"viability, T/C",[15],37.3%
same,"viability, T/C",[16],27.5%
same,"viability, T/C",[17],25.3%
same,"viability, T/C",[18],20.5%
same,"viability, T/C",[19],18.6%
same,"viability, T/C",[20],16.4%
same,"viability, T/C",[21],17.4%
same,"viability, T/C",[22],16.1%
same,"viability, T/C",[23],15.8%
same,"viability, T/C",[24],0.11%
same,"viability, T/C",[25],0.11%
same,"viability, T/C",[26],0.11%
same,"viability, T/C",[27],0.1%
same,"viability, T/C",[28],0.11%
same,"viability, T/C",[29],0.17%
Cn1ncnc1[C@H]1c2n[nH]c(=O)c3cc(F)cc(c23)N[C@@H]1c1ccc(F)cc1 + C=CC(=O)N1CCN(c2nc(=O)n(-c3c(C)ccnc3C(C)C)c3nc(-c4c(O)cccc4F)c(F)cc23)C(C)C1,IC50,[1],> 100 nM
same,IC50,[2],> 100 nM
same,IC50,[3],> 100 nM
same,IC50,[4],89.7 nM
same,IC50,[5],< 0.316 nM
same,"viability, T/C","second compound 0.1 µM, first compound 0.000316 µM",103%
same,"viability, T/C","second compound 0.1 µM, first compound 0.001 µM",104%
same,"viability, T/C","second compound 0.1 µM, first compound 0.00316 µM",105%
same,"viability, T/C","second compound 0.1 µM, first compound 0.01 µM",103%
same,"viability, T/C",[6],87.5%
same,"viability, T/C",[7],78.5%
same,"viability, T/C","second compound 0.316 µM, first compound 0.000316 µM",113%
same,"viability, T/C","second compound 0.316 µM, first compound 0.001 µM",109%
same,"viability, T/C","second compound 0.316 µM, first compound 0.00316 µM",105%
same,"viability, T/C","second compound 0.316 µM, first compound 0.01 µM",97.6%
same,"viability, T/C",[12],97.7%
same,"viability, T/C",[13],88.4%
same,"viability, T/C","second compound 1 µM, first compound 0.000316 µM",106%
same,"viability, T/C","second compound 1 µM, first compound 0.001 µM",97.3%
same,"viability, T/C","second compound 1 µM, first compound 0.00316 µM",94.9%
same,"viability, T/C","second compound 1 µM, first compound 0.01 µM",94.8%
same,"viability, T/C",[18],83.2%
same,"viability, T/C",[19],73.3%
same,"viability, T/C","second compound 3.16 µM, first compound 0.000316 µM",74.3%
same,"viability, T/C","second compound 3.16 µM, first compound 0.001 µM",64.2%
same,"viability, T/C","second compound 3.16 µM, first compound 0.00316 µM",65.1%
same,"viability, T/C","second compound 3.16 µM, first compound 0.01 µM",65.3%
same,"viability, T/C",[24],54.3%
same,"viability, T/C",[25],49.2%
same,"viability, T/C","second compound 10 µM, first compound 0.000316 µM",18.7%
same,"viability, T/C","second compound 10 µM, first compound 0.001 µM",20.8%
same,"viability, T/C","second compound 10 µM, first compound 0.00316 µM",20.6%
same,"viability, T/C","second compound 10 µM, first compound 0.01 µM",21.9%
same,"viability, T/C",[30],21.3%
same,"viability, T/C",[31],18.6%
CC1(C)CCC(CN2CCN(c3ccc(C(=O)NS(=O)(=O)c4ccc(NCC5CCOCC5)c([N+](=O)[O-])c4)c(Oc4cnc5[nH]ccc5c4)c3)CC2)=C(c2ccc(Cl)cc2)C1 + C=CC(=O)N1CCN(c2nc(=O)n(-c3c(C)ccnc3C(C)C)c3nc(-c4c(O)cccc4F)c(F)cc23)C(C)C1,IC50,[1],2270 nM
same,IC50,[2],2190 nM
same,IC50,[3],2020 nM
same,IC50,[4],1260 nM
same,IC50,[5],< 31.6 nM
same,"viability, T/C",[6],107%
same,"viability, T/C",[7],107%
same,"viability, T/C",[8],106%
same,"viability, T/C",[9],100%
same,"viability, T/C",[10],29.5%
same,"viability, T/C",[11],8.37%
same,"viability, T/C",[12],108%
same,"viability, T/C",[13],111%
same,"viability, T/C",[14],94.3%
same,"viability, T/C",[15],114%
same,"viability, T/C",[16],23.6%
same,"viability, T/C",[17],8.55%
same,"viability, T/C",[18],113%
same,"viability, T/C",[19],106%
same,"viability, T/C",[20],102%
same,"viability, T/C",[21],99.5%
same,"viability, T/C",[22],18.6%
same,"viability, T/C",[23],9.16%
same,"viability, T/C",[24],81.5%
same,"viability, T/C",[25],80.8%
same,"viability, T/C",[26],67.8%
same,"viability, T/C",[27],59.8%
same,"viability, T/C",[28],13.9%
same,"viability, T/C",[29],10.9%
same,"viability, T/C",[30],28.4%
same,"viability, T/C",[31],18.8%
same,"viability, T/C",[32],21.6%
same,"viability, T/C",[33],20.5%
same,"viability, T/C",[34],7.43%
same,"viability, T/C",[35],8.6%
